Test results published in US11446282B2, “Methods of treating mixed dyslipidemia and hypertriglycertdemia” (Kowa Company, Ltd., priority 2017, dated 2022).

How the values were obtained:
[1] = system: dyslipidemic patients with renal impairment; assay: Example 3 phase III 52-week trial: lipid levels; type: in vivo, human; conditions: for HDL-C % Change from baseline at Week 52 (LOCF) / HDL-C Week 52 (LOCF) / LDL-C % Change from baseline at Week 52 (LOCF) / LDL-C Week 52 (LOCF) / RemL-C % Change from baseline at Week 52 (LOCF) / RemL-C Week 52 (LOCF) / TG % Change from baseline at Week 52 (LOCF) / TG Week 52 (LOCF) / TG/HDL-C % Change from baseline at Week 52 (LOCF) / TG/HDL-C Week 52 (LOCF) / apoA1 % Change from baseline at Week 52 (LOCF) / apoA1 Week 52 (LOCF) / non-HDL-C % Change from baseline at Week 52 (LOCF) / non-HDL-C Week 52 (LOCF): 0.2 (0.4) mg/day
Protocol: This was a multicenter, single-arm, open-label, phase III trial. The inclusion criteria were as follows: (1) patients with dyslipidemia aged >20 years at the time of informed consent; (2) men and postmenopausal women; (3) fasting serum TG≥1.70 mmol/L (150 mg/dL) at two consecutive measurements during screening; and (4) patients who followed dietary and physical exercise guidance for >12 weeks before enrollment.
The major exclusion criteria were as follows: (1) patients with fasting serum TG≥5.65 mmol/L (500 mg/dL) during screening; (2) patients with poorly controlled diabetes mellitus (hemoglobin A1c [HbA1c]≥10.5%); (3) patients with concurrent poorly controlled thyroid disease; (4) men with serum creatinine ≥2.5 mg/dL and women with serum creatinine ≥2.0 mg/dL during screening who were already on statin therapy; (5) patients with eGFR<45 mL/min/1.73 m^2 during screening who were already on statin therapy; (6) patients with CK>5ULN (270 IU/L for men, 150 IU/L for women) during screening who were already on statin therapy; (7) patients with serious liver disease (cirrhosis Child-Pugh Class B or higher); (8) patients with gallstones or serious biliary tract disease; (9) patients who had suffered an acute myocardial infarction or stroke within three months before informed consent; and (10) patients with New York Heart Association class III or IV heart failure.
During the screening period (8 weeks prior to treatment initiation), tests were performed twice to determine patient eligibility. Thereafter, eligible patients orally received pemafibrate 0.2 mg/day (twice daily) for 52 weeks. From week 12 of the treatment period onwards, the investigators were instructed that the dose could be increased from 0.2 mg/day to 0.4 mg/day (twice daily) if there was an inadequate response to the initial dose based on fasting serum TG levels ≥1.70 mmol/L (150 mg/dL). Fasting blood and urine samples were collected at each visit. Blood and urine sample in patients with hemodialysis were collected just before dialysis. LDL-C levels were measured using the direct method. Lipoprotein fractions were measured by HPLC at baseline and weeks 12 and 40.
The primary efficacy endpoint was the percent change in fasting serum TG from baseline to the last evaluation point. The primary safety endpoints were the incidence of an AE or ADR occurring after drug administration during the study. Secondary efficacy endpoints included percent changes in lipid variables and changes in inflammation variables at week 52 [using the last-observation-carried-forward (LOCF)]. Secondary safety endpoints included changes in the levels of aspartate aminotransferase (AST), ALT, -GT, ALP, serum creatinine, eGFR, and CK at week 52. Each baseline value was defined as (1) the mean of the corresponding values in the first and second tests at the screening examination and at week 0 of the treatment period for fasting serum TG, HDL-C, total cholesterol (TC), LDL-C, and non-HDL-C; and (2) the value at week 0 of the treatment period for the other secondary variables.
The target sample size was set to 170 patients based on the number required to evaluate safety according to the International Conference on Harmonisation (ICH)-E1 guideline “Extent of population exposure to assess clinical safety for drugs intended for long-term treatment of non-life-threatening conditions”. For the primary efficacy endpoint, one-sample t-tests were performed.
The numbers of patients with AEs and ADRs and the incidences of AEs and ADRs were calculated in the analysis of primary safety endpoints. For the secondary efficacy endpoints, one-sample t-tests or Wilcoxon signed-rank tests [for high-sensitivity C-reactive protein (hsCRP) and IL-1] were performed. The secondary safety endpoints were analyzed with Wilcoxon signed-rank tests. A two-sided significance level of 0.05 was used. SAS v. 9.3 (SAS Institute Inc., Cary, N.C., USA) was used for these analyses. […]

[2] = Urinary excretion in nonclinical and clinical studies; type: in vivo
[3] = system: major drug metabolizing enzymes in the liver; assay: Inhibition of major drug metabolizing enzymes in the liver; type: in vitro ADME
[4] = system: organic anion-transporting polypeptide (OATP); assay: Drug-drug interaction with strong OATP inhibitors

CC[C@@H](Oc1cccc(CN(CCCOc2ccc(OC)cc2)c2nc3ccccc3o2)c1)C(=O)O [Pemafibrate, (2R)-2-[3-({1,3-benzoxazol-2-yl[3-(4-methoxyphenoxy)propyl]amino}methyl)phenoxy]butanoic acid]
HDL-C % Change from baseline at Week 52 (LOCF) ([1]; All Participants): 13.1%
HDL-C Week 52 (LOCF) ([1]; All Participants): 1.33 mmol/L
LDL-C % Change from baseline at Week 52 (LOCF) ([1]; All Participants): 2.2%
LDL-C Week 52 (LOCF) ([1]; All Participants): 3.02 mmol/L
RemL-C % Change from baseline at Week 52 (LOCF) ([1]; All Participants): −57.2%
RemL-C Week 52 (LOCF) ([1]; All Participants): 0.18 mmol/L
TG % Change from baseline at Week 52 (LOCF) ([1]; All Participants): −45.8%
TG Week 52 (LOCF) ([1]; All Participants): 1.48 mmol/L
TG/HDL-C % Change from baseline at Week 52 (LOCF) ([1]; All Participants): −49.7%
TG/HDL-C Week 52 (LOCF) ([1]; All Participants): 2.27 (mmol/L)/(mmol/L)
apoA1 % Change from baseline at Week 52 (LOCF) ([1]; All Participants): 5.0%
apoA1 Week 52 (LOCF) ([1]; All Participants): 137.6 mg/dL
non-HDL-C % Change from baseline at Week 52 (LOCF) ([1]; All Participants): −8.7%
non-HDL-C Week 52 (LOCF) ([1]; All Participants): 3.63 mmol/L
HDL-C % Change from baseline at Week 52 (LOCF) ([1]; eGFR G1 (≥90)): 3.6%
HDL-C Week 52 (LOCF) ([1]; eGFR G1 (≥90)): 1.29 mmol/L
LDL-C % Change from baseline at Week 52 (LOCF) ([1]; eGFR G1 (≥90)): 2.7%
LDL-C Week 52 (LOCF) ([1]; eGFR G1 (≥90)): 3.12 mmol/L
RemL-C % Change from baseline at Week 52 (LOCF) ([1]; eGFR G1 (≥90)): −59.9%
RemL-C Week 52 (LOCF) ([1]; eGFR G1 (≥90)): 0.21 mmol/L
TG % Change from baseline at Week 52 (LOCF) ([1]; eGFR G1 (≥90)): −41.4%
TG Week 52 (LOCF) ([1]; eGFR G1 (≥90)): 1.71 mmol/L
TG/HDL-C % Change from baseline at Week 52 (LOCF) ([1]; eGFR G1 (≥90)): −40.5%
TG/HDL-C Week 52 (LOCF) ([1]; eGFR G1 (≥90)): 1.58 (mmol/L)/(mmol/L)
apoA1 % Change from baseline at Week 52 (LOCF) ([1]; eGFR G1 (≥90)): 0.0%
apoA1 Week 52 (LOCF) ([1]; eGFR G1 (≥90)): 133.8 mg/dL
non-HDL-C % Change from baseline at Week 52 (LOCF) ([1]; eGFR G1 (≥90)): −8.3%
non-HDL-C Week 52 (LOCF) ([1]; eGFR G1 (≥90)): 3.77 mmol/L
HDL-C % Change from baseline at Week 52 (LOCF) ([1]; eGFR G2 (≥60 and <90)): 11.9%
HDL-C Week 52 (LOCF) ([1]; eGFR G2 (≥60 and <90)): 1.34 mmol/L
LDL-C % Change from baseline at Week 52 (LOCF) ([1]; eGFR G2 (≥60 and <90)): 2.1%
LDL-C Week 52 (LOCF) ([1]; eGFR G2 (≥60 and <90)): 3.03 mmol/L
RemL-C % Change from baseline at Week 52 (LOCF) ([1]; eGFR G2 (≥60 and <90)): −56.0%
RemL-C Week 52 (LOCF) ([1]; eGFR G2 (≥60 and <90)): 0.18 mmol/L
TG % Change from baseline at Week 52 (LOCF) ([1]; eGFR G2 (≥60 and <90)): −45.8%
TG Week 52 (LOCF) ([1]; eGFR G2 (≥60 and <90)): 1.47 mmol/L
TG/HDL-C % Change from baseline at Week 52 (LOCF) ([1]; eGFR G2 (≥60 and <90)): −48.9%
TG/HDL-C Week 52 (LOCF) ([1]; eGFR G2 (≥60 and <90)): 1.24 (mmol/L)/(mmol/L)
apoA1 % Change from baseline at Week 52 (LOCF) ([1]; eGFR G2 (≥60 and <90)): 4.1%
apoA1 Week 52 (LOCF) ([1]; eGFR G2 (≥60 and <90)): 137.2 mg/dL
non-HDL-C % Change from baseline at Week 52 (LOCF) ([1]; eGFR G2 (≥60 and <90)): −8.4%
non-HDL-C Week 52 (LOCF) ([1]; eGFR G2 (≥60 and <90)): 3.64 mmol/L
HDL-C % Change from baseline at Week 52 (LOCF) ([1]; eGFR G3a-G3b (≥30 and <60)): 17.0%
HDL-C Week 52 (LOCF) ([1]; eGFR G3a-G3b (≥30 and <60)): 1.38 mmol/L
LDL-C % Change from baseline at Week 52 (LOCF) ([1]; eGFR G3a-G3b (≥30 and <60)): 5.1%
LDL-C Week 52 (LOCF) ([1]; eGFR G3a-G3b (≥30 and <60)): 2.97 mmol/L
RemL-C % Change from baseline at Week 52 (LOCF) ([1]; eGFR G3a-G3b (≥30 and <60)): −59.3%
RemL-C Week 52 (LOCF) ([1]; eGFR G3a-G3b (≥30 and <60)): 0.17 mmol/L
TG % Change from baseline at Week 52 (LOCF) ([1]; eGFR G3a-G3b (≥30 and <60)): −51.1%
TG Week 52 (LOCF) ([1]; eGFR G3a-G3b (≥30 and <60)): 1.36 mmol/L
TG/HDL-C % Change from baseline at Week 52 (LOCF) ([1]; eGFR G3a-G3b (≥30 and <60)): −57.0%
TG/HDL-C Week 52 (LOCF) ([1]; eGFR G3a-G3b (≥30 and <60)): 1.09 (mmol/L)/(mmol/L)
apoA1 % Change from baseline at Week 52 (LOCF) ([1]; eGFR G3a-G3b (≥30 and <60)): 8.0%
apoA1 Week 52 (LOCF) ([1]; eGFR G3a-G3b (≥30 and <60)): 144.0 mg/dL
non-HDL-C % Change from baseline at Week 52 (LOCF) ([1]; eGFR G3a-G3b (≥30 and <60)): −7.7%
non-HDL-C Week 52 (LOCF) ([1]; eGFR G3a-G3b (≥30 and <60)): 3.56 mmol/L
HDL-C % Change from baseline at Week 52 (LOCF) ([1]; eGFR G4-G5 (<30)): 34.1%
HDL-C Week 52 (LOCF) ([1]; eGFR G4-G5 (<30)): 1.18 mmol/L
LDL-C % Change from baseline at Week 52 (LOCF) ([1]; eGFR G4-G5 (<30)): −8.8%
LDL-C Week 52 (LOCF) ([1]; eGFR G4-G5 (<30)): 2.82 mmol/L
RemL-C % Change from baseline at Week 52 (LOCF) ([1]; eGFR G4-G5 (<30)): −57.1%
RemL-C Week 52 (LOCF) ([1]; eGFR G4-G5 (<30)): 0.24 mmol/L
TG % Change from baseline at Week 52 (LOCF) ([1]; eGFR G4-G5 (<30)): −37.7%
TG Week 52 (LOCF) ([1]; eGFR G4-G5 (<30)): 1.64 mmol/L
TG/HDL-C % Change from baseline at Week 52 (LOCF) ([1]; eGFR G4-G5 (<30)): −51.0%
TG/HDL-C Week 52 (LOCF) ([1]; eGFR G4-G5 (<30)): 1.68 (mmol/L)/(mmol/L)
apoA1 % Change from baseline at Week 52 (LOCF) ([1]; eGFR G4-G5 (<30)): 16.7%
apoA1 Week 52 (LOCF) ([1]; eGFR G4-G5 (<30)): 122.4 mg/dL
non-HDL-C % Change from baseline at Week 52 (LOCF) ([1]; eGFR G4-G5 (<30)): −17.3%
non-HDL-C Week 52 (LOCF) ([1]; eGFR G4-G5 (<30)): 3.48 mmol/L
LDL-C change (observation) ([1]; lowest eGFR group (eGFR<30 mL/min/1.73 m^2: G4-G5)): reduction
urinary excretion [2]: low
inhibitory effects on major drug metabolizing enzymes in the liver [3]: minimal
interaction with strong OATP inhibitors (e.g., cyclosporine and rifampin) [4]: interact
